The source of these data is ChEMBL document CHEMBL1201862, “PubChem BioAssay data set” (2004).

The structures appear in SMILES notation. Activity calls are given as the source filed them.

Assay [1] concerns CHO. The experiment in a line: cytotoxicity in TLR9-MyD88 CHO cells, dose response, cytotoxicity control for TLR9-MyD88 binding inhibitor project, cell-based, luminescence (AID 588339).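 Also: CHO cells stably coexpressing TLR9 and MyD88 fusions from primary screen; compound exposure lasted 48 hours before viability readout.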 Conditions: Cricetulus griseus. The class given is functional, hamster.
Assay [2] deals with Voltage-gated inwardly rectifying potassium channel KCNH2 (Homo sapiens, UniProt Q12809). Particulars: Potency.
Assay [3] addresses High affinity nerve growth factor receptor (Homo sapiens, UniProt P04629). The class given is functional.
Assay [4] has as its target Leukocyte tyrosine kinase receptor (Homo sapiens, UniProt P29376). As to the kind of experiment: Navigating the Kinome. Panel member name: LTK. The class given is functional.
Assay [5] has as its target Dual specificity protein kinase CLK4 (Homo sapiens, UniProt Q9HAZ1). Type of assay: functional.
Assay [6] has as its target BDNF/NT-3 growth factors receptor (Homo sapiens, UniProt Q16620). The class given is functional.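 Also: NTRK2 measured as one member of a broad kinome-wide kinase profiling panel.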
In assay [7] the target is Tyrosine-protein kinase receptor TYRO3 (Homo sapiens, UniProt Q06418). The class given is functional.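 Also: TYRO3 value obtained as one member of a kinome-wide profiling panel.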
Tyrosine-protein kinase receptor TYRO3, sequence (Q06418 whole entry): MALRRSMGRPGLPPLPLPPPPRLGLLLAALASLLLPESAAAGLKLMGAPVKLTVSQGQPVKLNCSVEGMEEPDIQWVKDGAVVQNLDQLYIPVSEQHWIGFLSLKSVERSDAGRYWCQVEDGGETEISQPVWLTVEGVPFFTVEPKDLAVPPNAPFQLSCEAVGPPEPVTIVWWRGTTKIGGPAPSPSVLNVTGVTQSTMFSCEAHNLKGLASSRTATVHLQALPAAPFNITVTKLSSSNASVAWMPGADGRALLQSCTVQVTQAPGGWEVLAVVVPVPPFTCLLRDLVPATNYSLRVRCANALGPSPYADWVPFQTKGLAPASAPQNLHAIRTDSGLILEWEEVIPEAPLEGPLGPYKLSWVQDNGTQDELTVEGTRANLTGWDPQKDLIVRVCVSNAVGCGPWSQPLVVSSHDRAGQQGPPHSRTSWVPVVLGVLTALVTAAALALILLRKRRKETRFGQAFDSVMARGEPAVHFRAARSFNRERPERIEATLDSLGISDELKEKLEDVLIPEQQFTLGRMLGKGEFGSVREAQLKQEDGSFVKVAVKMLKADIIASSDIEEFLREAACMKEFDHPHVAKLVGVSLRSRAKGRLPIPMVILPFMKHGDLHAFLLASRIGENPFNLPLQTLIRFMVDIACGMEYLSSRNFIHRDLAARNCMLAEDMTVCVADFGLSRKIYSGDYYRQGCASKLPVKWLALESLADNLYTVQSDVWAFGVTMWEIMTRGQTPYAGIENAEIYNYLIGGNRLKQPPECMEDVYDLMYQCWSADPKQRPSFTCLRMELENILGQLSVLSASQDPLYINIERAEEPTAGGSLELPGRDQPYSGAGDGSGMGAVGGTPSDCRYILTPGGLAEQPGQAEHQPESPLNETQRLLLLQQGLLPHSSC
The nature of assay [8]: Vero cell cytotoxicity, dose response, cytotoxicity control for M. tuberculosis growth inhibitor project, Vero cells, purified and synthesized compounds, set 4 (AID 504854). The class given is functional. Particulars: Mycobacterium tuberculosis.
Assay [9] can be described thus: THP-1 cell cytotoxicity, dose response, cytotoxicity control, set 3 (AID 504852). Particulars: Mycobacterium tuberculosis. The class given is functional.
Assay [10] can be described thus: THP-1 cell cytotoxicity, cytotoxicity control, set 4 (AID 504911). The class given is functional. Conditions: Mycobacterium tuberculosis.
Assay [11] deals with DNA dC->dU-editing enzyme APOBEC-3A (Homo sapiens, UniProt P31941). The experiment in a line: SAR analysis of small molecule inhibitors of APOBEC3A DNA Deaminase via a fluorescence-based single-stranded DNA deaminase assay. Type of assay: functional. Particulars: read-out: IC50_Mean.
DNA dC->dU-editing enzyme APOBEC-3A, sequence (P31941 whole entry): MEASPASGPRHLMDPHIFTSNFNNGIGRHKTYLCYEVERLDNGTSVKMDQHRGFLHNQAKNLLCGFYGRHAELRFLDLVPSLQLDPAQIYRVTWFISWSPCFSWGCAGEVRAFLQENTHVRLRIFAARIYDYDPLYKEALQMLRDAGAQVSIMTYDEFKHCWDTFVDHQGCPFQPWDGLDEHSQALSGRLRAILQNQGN
Assay [12] addresses DNA dC->dU-editing enzyme APOBEC-3G (Homo sapiens, UniProt Q9HC16). As to the kind of experiment: APOBEC3G deaminase inhibitors, SAR follow-up, biochemical, fluorescence, single-stranded DNA substrate (AID 602136). Type of assay: functional. Particulars: read-out: IC50_Mean.
The target in assay [13] is DNA topoisomerase (Yersinia pestis, UniProt A0A2S9PM60). The experiment in a line: Y. pestis Topo-I inhibitors, cleavage product readout, dose response, biochemical, cherry-pick (AID 588525).
In assay [14] the target is Protein kinase C theta type (Homo sapiens, UniProt Q04759). The experiment in a line: Navigating the Kinome. Panel member name: PRKCQ. The class given is functional.
In assay [15] the target is Platelet-derived growth factor receptor beta (Homo sapiens, UniProt P09619). The class given is functional.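 Also: value comes from a kinome panel, with PDGFRB tested as one panel member.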
The target in assay [16] is Death-associated protein kinase 3 (Homo sapiens, UniProt O43293). Type of assay: functional.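 Also: measured as one member of a kinome-wide profiling panel.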
Death-associated protein kinase 3, sequence (O43293 whole entry): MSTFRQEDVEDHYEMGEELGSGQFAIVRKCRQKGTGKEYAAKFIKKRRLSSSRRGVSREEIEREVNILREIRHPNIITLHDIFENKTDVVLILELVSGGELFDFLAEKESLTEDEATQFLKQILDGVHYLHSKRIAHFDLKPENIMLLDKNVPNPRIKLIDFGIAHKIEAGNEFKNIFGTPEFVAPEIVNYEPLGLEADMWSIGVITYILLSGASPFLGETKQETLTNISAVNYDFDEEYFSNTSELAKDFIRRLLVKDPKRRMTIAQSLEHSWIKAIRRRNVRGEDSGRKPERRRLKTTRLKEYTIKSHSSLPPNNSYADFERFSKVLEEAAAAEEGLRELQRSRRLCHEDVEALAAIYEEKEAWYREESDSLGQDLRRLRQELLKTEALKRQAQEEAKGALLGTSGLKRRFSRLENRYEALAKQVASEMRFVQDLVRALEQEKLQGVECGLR
Assay [17] has as its target Serine/threonine-protein kinase Chk1 (Homo sapiens, UniProt O14757). The class given is functional.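 Also: measured as one member of a kinome-wide kinase profiling panel.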
Assay [18] deals with Vascular endothelial growth factor receptor 2 (Homo sapiens, UniProt P35968). The class given is functional.
The target of assay [19] is T1, Glycogen synthase kinase-3 alpha (Homo sapiens, UniProt P49840). The class given is functional.
T1 sequence (P49840 whole entry): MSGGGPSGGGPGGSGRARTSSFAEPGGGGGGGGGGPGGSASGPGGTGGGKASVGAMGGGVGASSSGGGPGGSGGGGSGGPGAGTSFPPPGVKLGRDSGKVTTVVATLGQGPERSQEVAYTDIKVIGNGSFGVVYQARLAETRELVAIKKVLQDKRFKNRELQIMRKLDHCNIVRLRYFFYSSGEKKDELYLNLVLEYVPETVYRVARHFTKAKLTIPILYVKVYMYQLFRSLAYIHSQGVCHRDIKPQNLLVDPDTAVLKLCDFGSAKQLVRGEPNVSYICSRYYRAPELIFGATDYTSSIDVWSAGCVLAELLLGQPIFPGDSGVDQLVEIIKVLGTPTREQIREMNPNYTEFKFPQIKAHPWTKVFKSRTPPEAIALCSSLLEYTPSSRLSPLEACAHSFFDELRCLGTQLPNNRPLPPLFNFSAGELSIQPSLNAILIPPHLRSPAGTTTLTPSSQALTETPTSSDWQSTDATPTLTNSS
For assay [20], the target named is cAMP-dependent protein kinase catalytic subunit alpha (Homo sapiens, UniProt P17612). Type of assay: functional.
The target of assay [21] is Dual specificity tyrosine-phosphorylation-regulated kinase 1B (Homo sapiens, UniProt Q9Y463). The experiment in a line: Navigating the Kinome. Panel member name: DYRK1B. Type of assay: functional.
Assay [22] concerns the target Aurora kinase A (Homo sapiens, UniProt O14965). The class given is functional.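 Also: value from the Navigating the Kinome kinase panel profiling, panel entry STK6.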
The target of assay [23] is Inhibitor of nuclear factor kappa-B kinase subunit epsilon (Homo sapiens, UniProt Q14164). As to the kind of experiment: Navigating the Kinome. Panel member name: IKBKE. Type of assay: functional.
The target of assay [24] is Casein kinase I isoform alpha (Homo sapiens, UniProt P48729). Type of assay: functional.
Assay [25] concerns the target Cyclin-dependent kinase 9 (Homo sapiens, UniProt P50750). The class given is functional.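 Also: value from the CDK9 entry of a kinome-spanning kinase panel.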
The target in assay [26] is LIM domain kinase 1 (Homo sapiens, UniProt P53667). As to the kind of experiment: Navigating the Kinome. Panel member name: LIMK1. The class given is functional.
Assay [27] has as its target Dual specificity tyrosine-phosphorylation-regulated kinase 1A (Homo sapiens, UniProt Q13627). The class given is functional.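 Also: measured against DYRK1A as one member of a broad kinome profiling panel.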
The target of assay [28] is Macrophage colony-stimulating factor 1 receptor (Homo sapiens, UniProt P07333). The class given is functional.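 Also: value comes from the Navigating the Kinome screening panel, CSF1R member.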
Macrophage colony-stimulating factor 1 receptor, sequence (P07333 whole entry): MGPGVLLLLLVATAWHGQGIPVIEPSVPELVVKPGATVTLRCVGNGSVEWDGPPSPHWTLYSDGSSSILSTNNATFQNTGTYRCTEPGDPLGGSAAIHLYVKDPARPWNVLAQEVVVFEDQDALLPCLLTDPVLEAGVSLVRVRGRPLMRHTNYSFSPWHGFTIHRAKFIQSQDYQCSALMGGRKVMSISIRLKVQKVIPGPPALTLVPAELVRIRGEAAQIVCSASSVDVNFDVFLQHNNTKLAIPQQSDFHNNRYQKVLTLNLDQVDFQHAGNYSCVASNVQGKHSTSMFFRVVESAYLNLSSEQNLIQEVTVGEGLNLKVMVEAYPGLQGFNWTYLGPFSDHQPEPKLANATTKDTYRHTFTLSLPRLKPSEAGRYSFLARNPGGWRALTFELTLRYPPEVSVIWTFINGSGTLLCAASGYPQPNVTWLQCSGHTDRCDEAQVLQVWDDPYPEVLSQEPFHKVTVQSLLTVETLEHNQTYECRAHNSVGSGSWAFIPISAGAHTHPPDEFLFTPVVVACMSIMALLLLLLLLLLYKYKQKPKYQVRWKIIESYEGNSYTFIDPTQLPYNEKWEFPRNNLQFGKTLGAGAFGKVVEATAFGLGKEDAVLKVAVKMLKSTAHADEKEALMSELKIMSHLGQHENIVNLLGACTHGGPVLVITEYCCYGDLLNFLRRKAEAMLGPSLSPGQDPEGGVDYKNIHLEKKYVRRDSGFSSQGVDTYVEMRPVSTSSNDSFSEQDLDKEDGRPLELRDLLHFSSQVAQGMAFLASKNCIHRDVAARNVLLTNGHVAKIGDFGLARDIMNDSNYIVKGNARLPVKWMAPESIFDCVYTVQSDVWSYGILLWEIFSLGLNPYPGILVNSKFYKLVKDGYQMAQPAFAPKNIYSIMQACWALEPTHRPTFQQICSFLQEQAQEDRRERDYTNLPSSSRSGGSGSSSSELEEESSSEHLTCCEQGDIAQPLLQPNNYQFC
The target of assay [29] is Serine/threonine-protein kinase TAO1 (Homo sapiens, UniProt Q7L7X3). Type of assay: functional.
Assay [30] relates to INS1. As to the kind of experiment: inhibitors of cytokine-induced nitrite release, dose response, cell-based, Griess absorbance, INS-1E, dry powder, set 2 (AID 488868). Particulars: Rattus norvegicus. The class given is functional. For orientation: The Griess reaction detects nitrite, a stable product of nitric oxide.
Assay [31] concerns INS1. As to the kind of experiment: protection from cytokine-driven beta-cell apoptosis, dose response, JC-1 fluorescence, INS-1E, dry powder, set 2 (AID 488867). The class given is functional, cell-based. Particulars: Rattus norvegicus.
Assay [32] in a line: inhibitors of cytokine-induced nitrite release, dose response, cell-based, Griess absorbance, INS-1E, dry powder, set 3 (AID 488870). The class given is functional. Conditions: Rattus norvegicus.
The subject of assay [33] is INS1. The experiment in a line: protection of INS-1E cells from cytokine death, dose response, ATP luminescence, dry powder (AID 488844). The class given is functional, cell-based. Conditions: Rattus norvegicus.
Assay [34] addresses DNA (cytosine-5)-methyltransferase 1 (Homo sapiens, UniProt P26358). As to the kind of experiment: DNMT1 methyltransferase inhibitors, confirmation, biochemical, fluorescent molecular beacon (AID 602386). The class given is functional.
Assay [35] has as its target T2, Carboxy-terminal domain RNA polymerase II polypeptide A small phosphatase 1 (Homo sapiens, UniProt Q9GZU7).
T2 sequence (Q9GZU7 whole entry): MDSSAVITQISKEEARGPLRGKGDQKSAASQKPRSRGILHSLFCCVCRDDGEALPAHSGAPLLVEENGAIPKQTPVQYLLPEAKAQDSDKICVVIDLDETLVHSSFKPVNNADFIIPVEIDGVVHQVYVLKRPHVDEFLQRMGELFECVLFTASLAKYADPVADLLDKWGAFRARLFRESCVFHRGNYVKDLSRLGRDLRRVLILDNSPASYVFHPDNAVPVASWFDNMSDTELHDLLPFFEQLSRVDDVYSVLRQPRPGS
As to the kind of experiment: inhibitors of CTDSP1, concentration-response testing, biochemical assay, absorbance-based, actives from ultra-high-throughput screening (AID 540297). The class given is functional.

Assay [36] deals with T3, Beta-adrenergic receptor kinase 1 (Homo sapiens, UniProt P25098). As to the kind of experiment: GRK2 inhibitors displacing RNA aptamer, dose response, biochemical, flow cytometry beads, FAM-aptamer, powder set 1 (AID 588720).
T3 sequence (P25098 whole entry): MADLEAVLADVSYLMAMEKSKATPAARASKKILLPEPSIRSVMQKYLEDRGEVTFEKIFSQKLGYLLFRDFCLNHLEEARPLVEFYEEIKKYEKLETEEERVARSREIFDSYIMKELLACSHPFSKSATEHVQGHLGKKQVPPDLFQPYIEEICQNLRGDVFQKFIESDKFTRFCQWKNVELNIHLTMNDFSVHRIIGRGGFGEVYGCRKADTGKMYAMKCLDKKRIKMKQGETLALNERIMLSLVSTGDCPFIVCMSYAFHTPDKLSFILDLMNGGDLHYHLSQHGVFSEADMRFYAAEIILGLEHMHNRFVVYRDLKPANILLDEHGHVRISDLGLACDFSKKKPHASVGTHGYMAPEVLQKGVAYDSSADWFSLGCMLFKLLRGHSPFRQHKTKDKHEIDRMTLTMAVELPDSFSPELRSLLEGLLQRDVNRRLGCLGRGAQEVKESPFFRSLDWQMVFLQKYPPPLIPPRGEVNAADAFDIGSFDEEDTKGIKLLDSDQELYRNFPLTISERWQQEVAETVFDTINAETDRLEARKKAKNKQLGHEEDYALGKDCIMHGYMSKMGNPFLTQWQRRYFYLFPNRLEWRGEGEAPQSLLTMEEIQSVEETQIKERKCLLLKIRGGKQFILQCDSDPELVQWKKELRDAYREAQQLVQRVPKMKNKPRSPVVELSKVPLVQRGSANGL
Assay [37] deals with T3, Beta-adrenergic receptor kinase 1. As to the kind of experiment: aptamer displacement from bead-bound GRK2 – biochemical, cherry pick 1, bead flow cytometry, dose response (AID 504500).
In assay [38] the target is Glycogen synthase kinase-3 beta (Homo sapiens, UniProt P49841). The experiment in a line: Inhibition of Human GSK-3 beta Activity Measured in Biochemical System Using Microfluidics - 2063-05_Inhibitor_Dose_DryPowder_Activity. [Related pubchem assays (depositor defined):AID2709].
Assay [39] concerns the target T1, Glycogen synthase kinase-3 alpha. As to the kind of experiment: Inhibition of Human GSK-3 alpha Activity Measured in Biochemical System Using Microfluidics - 2063-06_Inhibitor_Dose_DryPowder_Activity. [Related pubchem assays (depositor defined):AID2709].

Dual specificity protein kinase CLK4, sequence (Q9HAZ1 whole entry): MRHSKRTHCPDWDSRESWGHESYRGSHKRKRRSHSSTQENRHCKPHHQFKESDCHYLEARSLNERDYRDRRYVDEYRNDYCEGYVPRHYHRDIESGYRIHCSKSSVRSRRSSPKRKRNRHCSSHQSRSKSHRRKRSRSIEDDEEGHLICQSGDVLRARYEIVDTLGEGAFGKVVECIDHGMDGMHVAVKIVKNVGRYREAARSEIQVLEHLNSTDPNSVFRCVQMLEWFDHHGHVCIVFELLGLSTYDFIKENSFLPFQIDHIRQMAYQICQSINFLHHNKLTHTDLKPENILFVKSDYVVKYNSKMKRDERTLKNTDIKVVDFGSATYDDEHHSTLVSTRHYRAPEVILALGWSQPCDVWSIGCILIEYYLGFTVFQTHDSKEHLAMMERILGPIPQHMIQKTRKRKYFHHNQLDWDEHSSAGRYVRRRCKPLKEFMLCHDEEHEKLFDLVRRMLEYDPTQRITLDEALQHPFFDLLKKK
Serine/threonine-protein kinase Chk1, sequence (O14757 whole entry): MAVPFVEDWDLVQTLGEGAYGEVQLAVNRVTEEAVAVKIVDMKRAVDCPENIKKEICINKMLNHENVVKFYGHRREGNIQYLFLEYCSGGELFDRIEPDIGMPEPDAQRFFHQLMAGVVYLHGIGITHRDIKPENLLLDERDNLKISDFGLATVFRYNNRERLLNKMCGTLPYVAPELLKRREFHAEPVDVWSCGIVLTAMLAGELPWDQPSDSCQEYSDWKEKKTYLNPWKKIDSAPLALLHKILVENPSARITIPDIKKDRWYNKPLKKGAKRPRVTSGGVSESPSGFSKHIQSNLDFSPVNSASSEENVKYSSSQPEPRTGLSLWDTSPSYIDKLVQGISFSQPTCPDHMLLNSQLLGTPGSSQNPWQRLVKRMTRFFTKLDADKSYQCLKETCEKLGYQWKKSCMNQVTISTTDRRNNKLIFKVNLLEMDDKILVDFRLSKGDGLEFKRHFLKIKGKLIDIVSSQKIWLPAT
Cyclin-dependent kinase 9, sequence (P50750 whole entry, the tested form may be a part): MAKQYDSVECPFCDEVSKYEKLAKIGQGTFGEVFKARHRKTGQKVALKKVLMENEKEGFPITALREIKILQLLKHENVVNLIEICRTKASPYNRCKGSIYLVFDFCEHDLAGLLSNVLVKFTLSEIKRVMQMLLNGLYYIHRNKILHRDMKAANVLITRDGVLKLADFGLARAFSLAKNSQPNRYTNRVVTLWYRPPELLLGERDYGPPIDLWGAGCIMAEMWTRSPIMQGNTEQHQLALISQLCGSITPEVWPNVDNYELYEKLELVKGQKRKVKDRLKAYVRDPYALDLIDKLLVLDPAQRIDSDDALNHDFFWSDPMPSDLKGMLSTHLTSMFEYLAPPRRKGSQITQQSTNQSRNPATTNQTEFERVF

For the compound `Nc1ccc2nc(-c3ccccc3)cnc2c1`, in assay [1], the IC50 is > 49.7 µM (inactive).

On to `Cn1cc(C(=O)OCC2CCN(CCNS(C)(=O)=O)CC2)c2ccccc21`, for which the AC50 in assay [2] is 35.5 µM (inconclusive).

Consider `Cn1c(N)nc2sccc21`, for which the Ki in assay [3] is 50.1 µM (active); in assay [4] it was 79.4 µM (active); in [5], 20 µM (active); in [6] it was 63.1 µM (active); in assay [7] it was 79.4 µM (active).

For the compound `O=C(CSc1nc2c(c(=O)[nH]1)CCCC2)NC1CCCCC1`, the half-maximal cytotoxic concentration (CC50) in [8], in assay [9] and in assay [10] was > 100 µM (active) throughout.

Turning to `CCCCN1CCc2cc(/C=C3\C(=O)NC(=S)N(C4CCCCC4)C3=O)ccc21`, the IC50 in [11] and in assay [12] was > 99 µM (inactive) in each case.

As to `COc1cc2nc3n(c(=O)c2cc1OC)-c1cc2ccccc2cc1C(=O)NC3Cc1ccccc1` (stereo not given), the AC50 in [13] is 11.8 µM (active).

For the compound `CC(=O)n1ncc2cc(N)ccc21`, the Ki was > 100 µM (inactive) in [14]; > 79.4 µM (inactive) in assay [15]; 5.01 µM (active) in [16]; 0.2 µM (active) in [5]; 2 µM (active) in assay [17]; > 100 µM (inactive) in assay [18]. The Ki is 25.1 µM (active) in assay [19]; > 50.1 µM (inactive) in assay [20]; 0.631 µM (active) in [21]; 63.1 µM (active) in assay [22]; 79.4 µM (active) in assay [23]; 20 µM (active) in assay [24]. Besides, the Ki in [25] is > 63.1 µM (inactive); in [26], 3.16 µM (active); in assay [27], > 79.4 µM (inactive); in [28] it was > 100 µM (inactive); in [29] it was 6.31 µM (active).

Turning to `Cc1ccc(S(=O)(=O)N(C)C[C@@H]2Oc3c(NC(=O)Nc4cccc5ccccc45)cccc3C(=O)N([C@@H](C)CO)C[C@H]2C)cc1`, the AC50 in [30] is 69.6 µM (active); in [31] it was 48.3 µM (active); in [32], 32.7 µM (active); in assay [33], 31.7 µM (active).

Regarding `CCN(CC)c1ccc(NC(=O)CCS(=O)(=O)c2ccc(Br)cc2)c(C)c1`, the IC50 in assay [34] is 8.64 µM (active); in assay [35], 3.04 µM (active). The values for the half-maximal effective concentration (EC50) in assay [36] and in [37] were 0.426 µM (active) and 5.01 µM (active), respectively.

`CCCn1nc(NC(=O)C(C)C)c2cc3cc(OC)ccc3nc21`: the results for the AC50 in assay [38] and in [39] were 3.25 µM (active) and 38.5 µM (active), respectively.

What is called AC50 is the concentration at which the activity in the assay is half-maximal. Usually Ki stands for a dissociation constant, usually derived from enzyme kinetics or from competition with a known ligand. Usually CC50 stands for the concentration at which the toxic effect on the cells reaches its halfway point. For orientation: EC50 means the concentration needed to bring the measured effect to its halfway point.
